From patent US12643871B2, “Aryl formamide compound containing chiral sulfur oxide or salt thereof, preparation method, herbicidal composition and use thereof” (Qingdao Kingagroot Chemical Compound Co., Ltd., priority 2019, dated 2026)

What was measured:
Experiment in all cases: Weeding effect in post-emergence stage
Assay type in all cases: in vivo
Conditions in all cases: 250 g/ha; 2 leaf stage; 15 days after application; fresh weight control rate
Abutilon theophrasti = test system: Abutilon theophrasti
Method in brief: (§1)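 Post-emergence spray, 2-leaf stage; doses 500–15 g/ha; acetone + Tween 80 + methyl oleate EC (1.5 L/ha) as synergist. Greenhouse 15 d. Readout: fresh weight control rate graded levels 0–5 (5 = above 85%, 0 = below 5%); triplicate means.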

Amaranthus retroflexus = test system: Amaranthus retroflexus
Method in brief: as §1

Digitaria sanguinalis = test system: Digitaria sanguinalis
Method in brief: as §1

Echinochloa crusgali = test system: Echinochloa crusgali
Method in brief: as §1

Setaria viridis = test system: Setaria viridis
Method in brief: as §1

| SMILES | weeding effect in post-emergence stage, activity level (growth control rate), Abutilon theophrasti (Abutilon theophrasti) | weeding effect in post-emergence stage, activity level (growth control rate), Amaranthus retroflexus (Amaranthus retroflexus) | weeding effect in post-emergence stage, activity level (growth control rate), Digitaria sanguinalis (Digitaria sanguinalis) | weeding effect in post-emergence stage, activity level (growth control rate), Echinochloa crusgali (Echinochloa crusgali) | weeding effect in post-emergence stage, activity level (growth control rate), Setaria viridis (Setaria viridis) |
| --- | --- | --- | --- | --- | --- |
| COC(C)[S+]([O-])c1c(C(F)(F)F)ccc(C(=O)Nc2nnc(C)o2)c1F (stereo not drawn) [Compound 71] | 5 (Level 5: growth control rate is above 85%) | 5 (Level 5: growth control rate is above 85%) | 5 (Level 5: growth control rate is above 85%) | 5 (Level 5: growth control rate is above 85%) | 5 (Level 5: growth control rate is above 85%) |
| COCC[S@@+]([O-])c1c(C(F)(F)F)ccc(C(=O)Nc2nnc(C)o2)c1F [Compound 72] | 5 (Level 5: growth control rate is above 85%) | 5 (Level 5: growth control rate is above 85%) | 5 (Level 5: growth control rate is above 85%) | 5 (Level 5: growth control rate is above 85%) | 5 (Level 5: growth control rate is above 85%) |
| CCOCC[S@@+]([O-])c1c(C(F)(F)F)ccc(C(=O)Nc2nnc(C)o2)c1F [Compound 73] | 5 (Level 5: growth control rate is above 85%) | 5 (Level 5: growth control rate is above 85%) | 5 (Level 5: growth control rate is above 85%) | 5 (Level 5: growth control rate is above 85%) | 5 (Level 5: growth control rate is above 85%) |
| COC(C)C[S@@+]([O-])c1c(C(F)(F)F)ccc(C(=O)Nc2nnc(C)o2)c1F (stereo partly drawn) [Compound 74] | 5 (Level 5: growth control rate is above 85%) | 5 (Level 5: growth control rate is above 85%) | 5 (Level 5: growth control rate is above 85%) | 5 (Level 5: growth control rate is above 85%) | 5 (Level 5: growth control rate is above 85%) |
| COCCC[S@@+]([O-])c1c(C(F)(F)F)ccc(C(=O)Nc2nnc(C)o2)c1F [Compound 75] | 5 (Level 5: growth control rate is above 85%) | 5 (Level 5: growth control rate is above 85%) | 5 (Level 5: growth control rate is above 85%) | 5 (Level 5: growth control rate is above 85%) | 5 (Level 5: growth control rate is above 85%) |
| Cc1nnc(NC(=O)c2ccc(C(F)(F)F)c([S@+]([O-])CCOC(F)F)c2F)o1 [Compound 164] | 5 (Level 5: growth control rate is above 85%) | 5 (Level 5: growth control rate is above 85%) | 5 (Level 5: growth control rate is above 85%) | 5 (Level 5: growth control rate is above 85%) | 5 (Level 5: growth control rate is above 85%) |
| Cc1nnc(NC(=O)c2ccc(C(F)(F)F)c([S@+]([O-])CCOC(F)(F)F)c2F)o1 [Compound 165] | 5 (Level 5: growth control rate is above 85%) | 5 (Level 5: growth control rate is above 85%) | 5 (Level 5: growth control rate is above 85%) | 5 (Level 5: growth control rate is above 85%) | 5 (Level 5: growth control rate is above 85%) |
| CCC(=O)[S+]([O-])c1c(C(F)(F)F)ccc(C(=O)Nc2nnc(C)o2)c1F (stereo not drawn) [Compound 167] | 5 (Level 5: growth control rate is above 85%) | 5 (Level 5: growth control rate is above 85%) | 5 (Level 5: growth control rate is above 85%) | 5 (Level 5: growth control rate is above 85%) | 5 (Level 5: growth control rate is above 85%) |
| Cc1nnc(NC(=O)c2ccc(C(F)(F)F)c([S@@+]([O-])C(=O)CC(F)(F)F)c2F)o1 [Compound 169] | 5 (Level 5: growth control rate is above 85%) | 5 (Level 5: growth control rate is above 85%) | 5 (Level 5: growth control rate is above 85%) | 5 (Level 5: growth control rate is above 85%) | 5 (Level 5: growth control rate is above 85%) |
| CSC[S@+]([O-])c1c(C(F)(F)F)ccc(C(=O)Nc2nnc(C)o2)c1F [Compound 203] | 5 (Level 5: growth control rate is above 85%) | 5 (Level 5: growth control rate is above 85%) | 5 (Level 5: growth control rate is above 85%) | 5 (Level 5: growth control rate is above 85%) | 5 (Level 5: growth control rate is above 85%) |
| CSCC[S@@+]([O-])c1c(C(F)(F)F)ccc(C(=O)Nc2nnc(C)o2)c1F [Compound 204] | 5 (Level 5: growth control rate is above 85%) | 5 (Level 5: growth control rate is above 85%) | 5 (Level 5: growth control rate is above 85%) | 5 (Level 5: growth control rate is above 85%) | 5 (Level 5: growth control rate is above 85%) |
| COc1c(C(=O)Nc2nnc(C)o2)ccc(C(F)(F)F)c1[S@+]([O-])C(C)C [Compound 307] | 5 (Level 5: growth control rate is above 85%) | 5 (Level 5: growth control rate is above 85%) | 5 (Level 5: growth control rate is above 85%) | 5 (Level 5: growth control rate is above 85%) | 5 (Level 5: growth control rate is above 85%) |
